According to patent US20080318912A1, “Medicaments for Treating Chronic Respiratory Disease” (priority 2004, published 2008):
Read-outs that look alike come from different tables or passages of the source.

Tests used:
[1] = system: TS induced inflammation (cells recovered in the BAL); assay: Tobacco smoke (TS) induced inflammation, BAL cell counts 24 h after 11 daily exposures; type: in vivo, A/J mice; conditions: for Inhibition, Eosinophils (BAL) / Inhibition, Epithelial Cells (BAL) / Inhibition, Lymphocytes (BAL) / Inhibition, Macrophages (BAL) / Inhibition, Neutrophils (BAL) / Inhibition, Total Cells (BAL): 11 daily TS exposures
Excerpt: Female inbred AJ mice (body weights on initial day of use: 17.2-27.4 g) were obtained from Harlan, full barrier bred and certified free from specified micro-organisms on receipt. The mice were housed, up to 5 per cage, in individually ventilated, polycarbonate solid bottomed cages (IVC) with grade 8 aspen chip bedding. Environment (airflow, temperature and humidity) within the cages was controlled by the IVC system (Techniplast). Food (RM 1, Special Diet Services) and water were provided ad libitum. Individual animals were identified by unique coloured “pentel” markings on their tails, weighed and randomly assigned to treatment groups.
The required quantity of compound was placed into a mortar. Half the required volume CMC was slowly added to form a fine paste and then this was carefully added back to a container. The residual volume of CMC required to achieve the required dose is used to wash out the mortar and the washings added back to the container. For the combination dose, each compound was formulated at double the final required concentration and an equal volume of each compound added together. […]
In this exposure protocol, mice were exposed in groups of 5 in individual clear polycarbonate chambers (27 cm×16 cm×12 cm). The TS from the cigarettes was allowed to enter the exposure chambers at a flow rate of 100 ml/min. In order to minimise any potential problems caused by repeated exposure to a high level of TS (6 cigarettes), the exposure of the mice to TS was increased gradually over the exposure period to a maximum of 6 cigarettes. The exposure schedule used in this study was as follows:
(§1) The trachea was cannulated using a Portex nylon intravenous cannula (pink luer fitting) shortened to approximately 8 mm. Phosphate buffered saline (PBS) containing heparin (10 units/ml) was used as the lavage fluid. A volume of 0.4 ml was gently instilled and withdrawn 3 times using a 1 ml syringe and then placed in an Eppendorf tube and kept on ice prior to subsequent determinations.
(§2) Lavage fluid was separated from cells by centrifugation and the supernatant decanted and frozen for subsequent analysis. The cell pellet was re-suspended in a known volume of PBS and total cell numbers calculated by counting a stained (Turks stain) aliquot under a microscope using a haemocytometer.
(§3) The residual cell pellet was diluted to approximately 10^5 cells per ml. A volume of 500 μl was placed in the funnel of a cytospin slide and centrifuged for 8 min at 800 rpm. The slide was air dried and stained using ‘Kwik-Diff’ solutions (Shandon) as per the proprietary instructions. When dried and cover-slipped, differential cells were counted using light microscopy. Up to 400 cells were counted by un biased operator using light microscopy. Cells were differentiated using standard morphometric techniques.
In addition, animals receiving steroid or the steroid combination were dosed with steroid 20 h prior to the first TS exposure. The control group of mice (shams) received vehicle on days 1 to 11 and were exposed to air daily for a maximum of 50 minutes per day. BAL was performed on day 12, 24 h following the eleventh and final TS exposure.
Since tests for normality were positive the data was subjected to a one way analysis of variance test (ANOVA), followed by a Bonferroni correction for multiple comparisons in order to test for significance between treatment groups. A “p” value of <0.05 was considered to be statistically significant. Percentage inhibitions were automatically calculated within the Excel spreadsheets for the cell data using the formula below: […]
Animals were sacrificed 24 h post the final exposure to TS/air. A BAL was performed and the total number of cells recovered counted. Data are presented as individual points and the mean values shown. Data are from 9-10 animals per group. Statistical analysis was by ANOVA. A “p” value of <0.05 was considered statistically significant. ns=not statistically significant.

[2] = system: LPS induced increases in BAL cells; assay: LPS challenge induced inflammation, BAL cell counts 24 h post challenge; type: in vivo, A/J mice
Protocol: Previous studies have shown that peak BAL neutrophilia is achieved 24 h post intranasal challenge with LPS at 0.3 μg. In the studies reported here this dose of LPS and this time point were employed. Control animals received phosphate buffered saline (PBS) intranasally.
Approximately 3 min prior to intra-nasal challenge anaesthesia was induced by isofluorane inhalation. Vehicle (PBS) or LPS was instilled at 50 μl per mouse. The LPS concentration was 6 μg/ml (0.3 μg per mouse). Animals were allowed to recover in a heated box at 37° C. and then returned to the home cage.
as §1, §2, §3
Animals were sacrificed 24 h post the LPS challenge. A BAL was performed and the total number of cells recovered counted. Data are presented as individual points and the mean values shown. Data are from 9-10 animals per group. Statistical analysis was by ANOVA. […]

[3] = Pharmacokinetic evaluation of plasma levels of theophylline after oral dosing; type: in vivo, A/J mice; conditions: for concentration at 15 min / concentration at 30 min / concentration at 60 min / concentration at 240 min: A/J, mouse, plasma; for concentration at 15 min: 15 minutes post dosing; for concentration at 60 min: 60 minutes post dosing; for concentration at 240 min: 240 minutes post dosing
Protocol: The collected blood was mixed and decanted into eppendorf tubes before centrifugation in a microftige. Plasma was collected and stored at −80° C. prior to analysis by an HPLC/MS/MS method. The equipment used in the measurement of plasma levels were a Micromann Quatro Micro Mass Spectrometer (Micromass UK Limited) and a Waters 2795 Alliance HT liquid chromatograph (Waters USA).
Samples were prepared for analysis by adding 200 μl of acetonitrile (containing 0.25 mg/l dextrorphan as an internal standard) to 50 μl of each thawed sample and standard and mixed vigorously. Each sample and standard was then centrifuged at 1000 g for 2 minutes and the supernatant removed for LC-MS/MS analysis.
Analysis of theophylline and dextrorphan was carried out using reverse phase HPLC with tandem mass spectrometric detection (LC-MS/MS). Positive ions for parent compound and a specific fragment product were monitored in a Multiple Reaction Monitoring mode using a Micromass Quatro Micro Mass Spectrometer with Micromass MassLynx software version 4.0. A 25 μl aliquot of each sample and standard was injected onto the liquid chromatography system.

[4] = 250 or 375 mg theophylline with 400 μg budesonide twice daily, asthma patients; cited from earlier work
phosphodiesterases = conditions: cited from earlier work
[5] = system: adenosine receptors (A1 and A2 receptors); conditions: at therapeutic concentrations; cited from earlier work
[6] = cited from earlier work
[7] = dexamethasone 0.3 mg/kg p.o. twice daily, BAL 24 h post
[8] = dexamethasone 0.3 mg/kg p.o. at -20, -1 and 6 h relative to LPS (0.3 μg i.n.), BAL 24 h post challenge
[9] = theophylline 3 mg/kg p.o. twice daily, BAL 24 h post

## C[C@@H]1C[C@H]2[C@@H]3CCC4=CC(=O)C=C[C@]4(C)[C@@]3(F)[C@@H](O)C[C@]2(C)[C@@]1(O)C(=O)CO [Dexamethasone, dexamethasone]
[1]; [7]
  Inhibition, Eosinophils (BAL): −94%
  Inhibition, Epithelial Cells (BAL): −20%
  Inhibition, Lymphocytes (BAL): −7%
  Inhibition, Macrophages (BAL): −14%
  Inhibition, Neutrophils (BAL): −46%
  Inhibition, Total Cells (BAL): −16%
[2]; [8]
  Reduction of neutrophils in BAL: 71%
  Reduction of total cells in BAL: 68%

## Cn1c(=O)c2[nH]cnc2n(C)c1=O [Theophylline, 3,7-dihydro-1,3-dimethyl-1H-purine-2,6-dione]
[1]; theophylline 3 mg/kg alone p.o., 1 h prior to and 6 h post TS, 11 days
  Inhibitory effect on any of the specific cell types (BAL): No statistically significant inhibitory effect
[1]; theophylline 3 mg/kg p.o. twice daily (-1 h and +6 h), BAL 24 h post final exposure
  Inhibition, Total Cells (BAL): −11%
[1]; [9]
  Inhibition, Eosinophils (BAL): −56%
  Inhibition, Epithelial Cells (BAL): −18%
  Inhibition, Lymphocytes (BAL): 1%
  Inhibition, Macrophages (BAL): −4%
  Inhibition, Neutrophils (BAL): −10%
[1]; theophylline given alone
  Anti-inflammatory activity in the COPD (TS) model: failed to demonstrate any significant anti-inflammatory activity
[2]; theophylline at the dose level tested (0.3 mg/kg p.o.)
  Activity on LPS induced pulmonary inflammation: without activity
[3]; oral dose 0.3 mg/kg, mean ± SD
  concentration at 15 min: 130 ± 6 ng/mL
  concentration at 60 min: 256 ± 198 ng/mL
  concentration at 240 min: 65 ± 11 ng/mL
[3]; oral dose 0.3 mg/kg, 30 minutes post dosing, mean ± SD
  concentration at 30 min: 140 ± 25 ng/mL
[3]; oral dose 1 mg/kg, mean ± SD
  concentration at 15 min: 740 ± 760 ng/mL
  concentration at 60 min: 410 ± 84 ng/mL
  concentration at 240 min: 60 ± 15 ng/mL
[3]; oral dose 1 mg/kg, 30 minutes post dosing, mean ± SD
  concentration at 30 min: 660 ± 122 ng/mL
[3]; oral dose 3 mg/kg, mean ± SD
  concentration at 15 min: 1860 ± 290 ng/mL
  concentration at 60 min: 1470 ± 110 ng/mL
  concentration at 240 min: 90 ± 100 ng/mL
[3]; oral dose 3 mg/kg, 30 minutes post dosing, mean ± SD
  concentration at 30 min: 3660 ± 2640 ng/mL
[3]; oral dose 0.3 mg/kg
  Plasma concentrations at all time points: less than 1 mg/l
[3]; oral dose 3 mg/kg
  Time of peak levels: 30 min
[3]; oral dose 3 mg/kg, 30 minute time point, single animal
  Plasma level of the one animal above 5 mg/l: 6.7 mg/A
[3]; oral dose 3 mg/kg, 30 minutes post dosing, mean ± SD, 3 mg/kg
  Plasma Levels: 3660 ± 2640 ng/mL
[4]
  Plasma concentration achieved (median value): 8700 ng/mL
phosphodiesterases
  Inhibition of phosphodiesterases: weak and nonselective inhibitor
[5]
  Inhibition of adenosine receptors (antagonism of A1 and A2 receptors): potent inhibitor
[6]; absorption from the gastrointestinal tract
  Bioavailability: 90-100%
[6]; adults
  Mean plasma half-life: about 8 hours
[6]; in vivo
  Plasma levels regarded as being necessary for anti-inflammatory efficacy: 10000 to 20000 ng/mL
[6]; premature neonates
  Plasma half-life: approximately 30 hours
[6]; slowed by the presence of food
  Time to peak levels following ingestion: 1 to 2 h
[6]; up to the age of 20
  Plasma half-life: approximately 3.5 hours
